Where a name gives a salt, the structure may show the parent alone.
Columns and labels:
[1] = test system: ptosis induced by reserpine; assay: Antagonism of the ptosis induced by reserpine; type: in vivo, female mouse CDI (Charles River); details: reserpine 2 mg/kg i.v., 1 hour; for ED50: Mus musculus, ip
Description: This test, described by GOURET (Journal de Pharmacologie (Paris), 1973, 4(1), 105-128), was carried out on the female mouse CDI (Charles River) weighing 20±1 g. The reserpine provokes a ptosis one hour after intravenous administration thereof; certain antidepressants oppose this ptosis.
The substances to be studied were administered by the i.p. route. The reserpine is administered simultaneously by the intravenous route at the dose of 2 mg/kg. One hour after administration of the reserpine, the number of animals not presenting ptosis is noted.
This test was carried out on batches of 10 mice, the results are expressed in percentage of animals not presenting ptosis and are the average of at least two experiments.

[2] = test system: despair reaction (duration of immobilisation); assay: Despair reaction ("Behavioral Despair"); type: in vivo, female mouse, CDI (Charles River); details: 10 mg/kg i.p., 1 hour before test; immobile time between 2nd and 6th minute
Description: This test was carried out on the female mouse, CDI (Charles River), weighing 18 to 23 g, according to the method described by Porsolt (Archives Internationales de Pharmacodynamie, 1977, 229, 327-336). The principle of this test is as follows: when a mouse is placed in a narrow recipient filled with water, it struggles, then, after 2 to 4 mins., it becomes still and floats on its stomach, its back rounded, its rear paws drawn up under its body and it makes only a few movements necessary for holding its head out of the water. This is the so-called despair reaction. Certain psychotherapeutic agents, particularly antidepressants, extend the time during which the mouse struggles. The products to be studied were administered by the i.p. route 1 hour before the test. For the test, the animals are placed in a narrow recipient (10×10×10 cm) filled with water up to a height of 6 cm, the temperature of the water being 24° C.±2° C. The animals are left 6 minutes in the water and the time when the animal remains immobile between the 2nd and the 6th minute is measured--the shorter this time, the more the substance is active. Each substance was studied on a batch of 10 mice. The results are the average of at least two experiments.

[3] = test system: mice; assay: Convulsivant threshold dose (same experiments as acute toxicity); type: in vivo, mouse
Description: (§1) The products to be studied were administered by the intraperitoneal route in increasing doses to batches of 10 mice. The mortality provoked by the products studied was noted during the 24 hours following administration of the product.
During the same experiments, the convulsivant threshold dose of the product is also noted, i.e. the minimum dose for which a convulsivant activity begins to show.

[4] = Acute toxicity (LD50, 24 hours, intraperitoneal); details: mouse, in vivo, ip
Description: as §1
From the results obtained, the lethal dose 50, i.e. the dose provoking the death of 50% of the animals studied, is determined for each of the products studied.

[5] = test system: striatal dopaminergic receptors; assay: Dopaminomimetic activity (rotations after unilateral lesion of nigrostriatal dopaminergic neurones); type: in vivo, mouse; details: 5.3 μmoles/kg i.p.
Excerpt: The dopaminomimetic activity of the products of the invention was studied on the striatal dopaminergic receptors of the mouse according to the technique described by P. PROTAIS and J. COSTENTIN, Journal de Pharmacologie (Paris), 7, 251-255 (1976).
The unilateral lesion of the nigrostriatal dopaminergic neurones induces a hypersensitivity of the receptors of the dopamine at the level of the striatum.
After administration of the products to be studied by the intraperitoneal route, the number of rotations made by the animal is counted for a period of 2 minutes.
The results are expressed in the form of percentage of the variations with respect to the controls not having received the product to be studied.

[6] = cited from earlier work
[7] = mice, mortality during 24 hours

| SMILES | ED50 [1] | Convulsivant threshold dose ([3]; mouse, in vivo, ip) | LD50 at 24 h [4] | Average number of ipsilateral rotations in 2 minutes, % with respect to controls [5] | LD50 at 24 h [4, 7] | also measured |
| --- | --- | --- | --- | --- | --- | --- |
| Cc1cc(-c2ccccc2)nnc1N [CM 30465, 3-AMINO 4-METHYL 6-PHENYL PYRIDAZINE(HYDROCHLORIDE)] | 8.6 mg/kg | 200 mg/kg | 226 mg/kg | -89% | – | "Behavioral Despair" % of reduction of the duration of immobilisation [2]: -24% |
| Cc1cc(-c2ccccc2)nnc1NCC[N+]1([O-])CCOCC1 [SR 30490, N-OXIDE of 3-(2-MORPHOLINO ETHYLAMINO 4-METHYL 6-PHENYL PYRIDAZINE] | ~50 mg/kg | 300 mg/kg | > 200 mg/kg | – | – | – |
| Cc1cc(-c2ccccc2)nnc1NCCNCCO [CM 30311, 3-[2-(2-HYDROXY ETHYLAMINO)ETHYLAMINO]4-METHYL 6-PHENYL PYRIDAZINE, DIHYDROCHLORIDE] | – | 200 mg/kg | > 200 mg/kg | -146% | – | – |
| Cc1cc(-c2ccccc2O)nnc1NCCN1CCOCC1 [SR 95070, 3-(2-morpholinoethylamino)4-methyl 6-(2-hydroxyphenyl)pyridazine] | – | 200 mg/kg | – | -89% | > 200 mg/kg | – |
| CCN(CCO)CCNc1nnc(-c2ccccc2)cc1C [SR 95084, 3-{2-[N-ethyl(2-hydroxyethylamino)]ethylamino}4-methyl 6-phenyl pyridazine] | – | 200 mg/kg | – | – | 100 to 200 mg/kg | – |
| COc1ccc(-c2cc(C)c(NCCN3CCOCC3)nn2)cc1 [CM 30073, reference compound] | – | – | – | 0% | 19 mg/kg | Antagonism of the ptosis induced by reserpine (percentage of animals not presenting ptosis) ([1]; 1 mg/kg i.p.): 30%; Antagonism of the ptosis induced by reserpine (percentage of animals not presenting ptosis) ([1]; 5 mg/kg i.p.): 60%; Convulsivant threshold dose ([3]; i.p., mice, minimum dose for which a convulsivant activity begins to show): 5 mg/kg |
| Cc1cc(-c2ccc(O)cc2)nnc1N [SR 95087, 3-amino 4-methyl 6-(4-hydroxyphenyl)pyridazine] | – | > 200 mg/kg | – | – | > 200 mg/kg | – |
| Br.Br.Cc1cc(-c2ccc(O)cc2)nnc1NCCN1CCOCC1 [CM 30366, 3-(2-MORPHOLINO ETHYLAMINO)4-METHYL 6-(4-HYDROXY PHENYL)PYRIDAZINE DIHYDROBROMIDE] | 12 mg/kg | 200 mg/kg | > 200 mg/kg | -111% | – | "Behavioral Despair" % of reduction of the duration of immobilisation [2]: -31% |
| Cc1cc(-c2ccccc2)nnc1NCCN1CCOCC1=O [CM 30488, 3-[2-(3-OXO 4-MORPHOLINYL)ETHYLAMINO]4-METHYL 6-PHENYL PYRIDAZINE, HYDROCHLORIDE] | 20 mg/kg | 300 mg/kg | > 300 mg/kg | -90% | – | – |
| Cc1cc(-c2cccc(O)c2)nnc1NCCN1CCOCC1 [SR 95082, 3-(2-morpholinoethylamino)4-methyl 6-(3-hydroxyphenyl)pyridazine] | – | > 200 mg/kg | – | – | > 200 mg/kg | – |
| Cc1cc(-c2ccccc2)nnc1NCCN1CCOCC1 [Minaprine, reference compound] | 5 mg/kg | 35 mg/kg | – | -91% | – | "Behavioral Despair" % of reduction of the duration of immobilisation [2]: -35%; type of psychotherapeutic action ([6]; in vivo): "disinhibitory" activity; dose above which convulsivant ([6]; per os): higher than 100 mg/kg |
| Cc1cc(-c2ccccc2)nnc1NCCN1CCOC(=O)C1 [CM 30489, 3-[2-(2-OXO 4-MORPHOLINYL)ETHYLAMINO]4-METHYL 6-PHENYL PYRIDAZINE, DIHYDROCHLORIDE] | – | – | – | -97% | – | – |
